{"source": "patent EP1053750A1", "about": "“Use of proteasome-inhibitor for the induction of programmed cell death (apoptosis)” (Max-Planck-Gesellschaft zur Förderung der Wissenschaften …, priority 1999, dated 2000)", "key": {"caspase-3 like activity": {"tested_on": "caspase-3 like activity", "experiment": "Caspase activity in lysates of treated HUE cells, substrate Ac-DEVD-AMC", "format": "cell-based, human", "settings": "HUE cell lysates, 50 µM", "procedure": "Subconfluent endothelial cells were incubated with the inhibitors for the indicated times, lysed and caspase activities determined using Ac-DEVD-AMC for caspase-3-like enzymes and Ac-YVAD-AMC for caspase-1-like activities as described in the Material and Methods section (PSI, filled circles; LLnM, open square; E64, open triangles; Leupeptin, filled triangles; Pepstatin, filled squares). The specific caspase activities are shown as pmol of substrate hydrolyzed/min per µg of protein.\nHUE cells (8 x 10^5) were plated onto 10 cm plastic dishes, allowed to attach overnight, and inhibitors were added to a final concentration of 50 µM for the times indicated in Fig. 4. DMSO, which served as the vehicle, was added to a final concentration of 0.1%. Floating and adherent cells were then harvested, lysed in Buffer I (1% Triton X100, 10 mM KCl, 20 mM HEPES pH 7.4, 1.5 mM MgCl2, 0.2 mM EGTA, 1 mM PMSF), snap frozen in liquid nitrogen and stored at -80°C until required. Lysates were centrifuged at 13000 g for 5 min at 4°C, the supernatants collected and protein concentrations determined using the BCA assay. […] Specific activity was expressed as pmol AMC liberated per min and per µg protein in comparison to a standard curve calculated from the amount of free AMC (SIGMA, Deisenhofen, Germany)."}, "HUE cells [1]": {"tested_on": "HUE cells", "experiment": "Viability assay (MIT assay), HUE cells", "format": "cell-based, human", "settings": "for EC50: Homo sapiens, 48 h, 48 h incubation"}, "caspase-1 like activity": {"tested_on": "caspase-1 like activity", "experiment": "Caspase activity in lysates of treated HUE cells, substrate Ac-YVAD-AMC", "format": "cell-based, human", "settings": "HUE cell lysates, 50 µM, throughout the time course", "method": "Detection of a caspase-3-like activity in lysates of PSI-treated HUE cells. […] The specific caspase activities are shown as pmol of substrate hydrolyzed/min per µg of protein.\nHUE cells (8 x 10^5) were plated onto 10 cm plastic dishes, allowed to attach overnight, and inhibitors were added to a final concentration of 50 µM for the times indicated in Fig. 4. DMSO, which served as the vehicle, was added to a final concentration of 0.1%. Floating and adherent cells were then harvested, lysed in Buffer I (1% Triton X100, 10 mM KCl, 20 mM HEPES pH 7.4, 1.5 mM MgCl2, 0.2 mM EGTA, 1 mM PMSF), snap frozen in liquid nitrogen and stored at -80°C until required. Lysates were centrifuged at 13000 g for 5 min at 4°C, the supernatants collected and protein concentrations determined using the BCA assay. A 40 µl aliquot of each sample was assayed in the presence of 20 µM Ac-DEVD-AMC or Ac-YVAD-AMC substrates (Bachem, Heidelberg, Germany) in Buffer II (50 mM PIPES-KOH pH 7.0, 0.1 mM EDTA, 1 mM DTT, 10% glycerol; total volume 250 µl) for 40 min at 37°C and the fluorescence intensity was measured with an excitation wavelength of 350 nm and emission wavelength of 430 nm. […] Specific activity was expressed as pmol AMC liberated per min and per µg protein in comparison to a standard curve calculated from the amount of free AMC (SIGMA, Deisenhofen, Germany)."}, "HUE cells [2]": {"tested_on": "HUE cells", "experiment": "Apoptotic morphology (phase contrast, Hoechst 33342), HUE cells", "format": "cell-based, human", "settings": "subconfluent HUE cells, 50 µM, 18 - 24 hours", "excerpt": "Phase contrast pictures are shown on the left, and identical areas which display the nuclear morphology after Hoechst staining are shown on the right. Arrowheads point at nuclei with apoptotic morphology. Scale bars are 50 µm.\nPrimary bovine aortic endothelial cells (BAE) were isolated from bovine pulmonary aorta according to the method of Schwartz (In Vitro 14 (1978), 966 - 980) and maintained in MDCB131 medium supplemented with 8% fetal calf serum (FCS), penicillin (100 lU/ml) and streptomycin (100 µg/ml) at 5% CO2. Human umbilical vein endothelial cells (HUE), an immortalized human umbilical vein endothelial cell line (ATCC CRL-1730) were cultured under the same conditions. Madin Darby canine kidney epithelial cells (MDCK; ATCC CLL-34) were grown in Dulbecco's Modified Eagle's Medium (DMEM) containing 10% FCS, penicillin and streptomycin."}, "[3]": {"tested_on": "chorioallantoic membrane (CAM)", "experiment": "Chorioallantoic membrane (CAM) assay", "format": "in vivo, chick embryo", "settings": "for %CAMs with non-perfused areas: Luconyl Blue injection, positive/total CAMs in parenthesis", "method": "All experiments with chick embryos were performed in ovo. After aspiration of 2 ml of eggwhite from the pointed side of the egg, a window was cut into the eggshell on embryonic day 3 or 4 (E3, E4). The eggs were resealed with tape and further incubated until E9. […] Approximately 1 cm^2-pieces of the CAM were then cut out, washed in PBS and fixed in Carnoy's solution. After dehydration and embedding in paraffin, 8 µm sections were cut and stained with an anti-BrdU mouse monoclonal antibody (Boehringer Mannheim, Germany) according to the manufacturer's instructions. Counterstaining of the sections was performed with Gill's hematoxylin (Serva, Heidelberg, Germany). Sections were mounted using Aquamount (Merck, Darmstadt, Germany) and photos were taken with a Zeiss Axiophot microscope. […] Control pellets were prepared with an equal amount of Leupeptin or with DMSO as vehicle, respectively. To aid in the visualization of the vascular system, embryos and CAMs were then injected using pulled glass capillaries with 10% Luconyl Blue (BASF, Ludwigshafen, Germany) in PBS, and photographs were taken using a stereomicroscope with camera adapter.\nIn eight eggs the windows of the egg shells were enlarged under an operation microscope. After a peripheral incision in the CAM was made, the main artery was incised with a pair of ocular scissors, and a glass capillary (World Precision Instruments, Inc. Germany) pulled to the adequate diameter, was inserted and sealed with a drop of cyanoacrylate (Loctite®). Efflux was enabled by making another incision into a main draining vessel. The vascular system was flushed with up to 5 ml of prewarmed (37 -39°C) physiological saline (0.9% NaCI) under mechanically controlled pressure. […] After complete polymerization of the casting solution, the membranes were dissected and macerated in a solution of 5% potassium hydroxide (Fluka, Neu-Ulm, Germany) at 40°C for 1 - 2 days. The resulting corrosion casts of all specimens were freeze dried, mounted and sputter coated. Examination of the microvascular corrosion casts were carried out with a Stereoscan Mk-250 scanning electron microscope (Cambridge, England). Alternatively, in situ fixed CAM segments were cut out, processed for semi-thin sectioning and stained with methylene blue and Azur II. Selected specimens were trimmed for ultrathin sectioning, and counterstained with uranyl acetate and lead citrate."}}, "note": "Peptide text beside a SMILES is read from it. * marks the point of attachment. Cbz = O=C(OCc1ccccc1)*; OtBu = CC(C)(C)O*", "data": [{"compound": "CC[C@H](C)[C@H](NC(=O)OCc1ccccc1)C(=O)N[C@@H](CCC(=O)OC(C)(C)C)C(=O)N[C@@H](C)C(=O)N[C@H](C=O)CC(C)C", "note": "[PSI, carbobenzoxy-L-isoleucyl-y-t-butyl-L-glutamyl-L-alanyl-L-leucinal] (Cbz-IE(OtBu)AL-aldehyde)", "values": [{"measurement": "time of maximum of Ac-DEVD-AMC cleavage", "setting": "caspase-3 like activity", "value": 15, "unit": "h"}, {"measurement": "x difference", "setting": "HUE cells [1]; EC50 confluent versus subconfluent, 2880 min", "value": 1119, "unit": "fold"}, {"measurement": "EC50", "setting": "HUE cells [1]; con (grown to confluency)", "value": 7.83, "unit": "µM"}, {"measurement": "EC50", "setting": "HUE cells [1]; sub (low density, subconfluent)", "value": 0.007, "unit": "µM"}, {"measurement": "caspase-1 like activity", "setting": "caspase-1 like activity", "value": "could not be detected"}, {"measurement": "induction of apoptosis (nuclear morphology)", "setting": "HUE cells [2]", "value": "Induction of apoptosis"}, {"measurement": "%CAMs with non-perfused areas", "setting": "[3]; 0.31 µg/disc, methylcellulose disc on CAM for 48 h", "value": "0(0/10) %"}, {"measurement": "%CAMs with non-perfused areas", "setting": "[3]; 1.0 µg/disc, methylcellulose disc on CAM for 48 h", "value": "56.3 (18/32) %"}, {"measurement": "%CAMs with non-perfused areas", "setting": "[3]; 3.1 µg/disc, methylcellulose disc on CAM for 48 h", "value": "85.7 (12/14) %"}, {"measurement": "densities of the capillary plexus and first order vessels (corrosion casts)", "setting": "[3]; CAM area directly under the disc", "value": "rarified"}, {"measurement": "TUNEL labeling of cell nuclei in CAM sections", "setting": "[3]; methylcellulose disc on CAM for 48 h, cells in close contact with the disc", "value": "Intense labeling"}]}]}
